The record followed here is patent publication US4400384A, “5-o-Cyanobenzyl-4,5,6,7-tetrahydrothieno [3,2-c] pyridine methanesulfonate and other novel salts thereof” (Sanofi, S.A., priority 1980, dated 1983).

Molecules are shown by their SMILES.

The nature of data set [1]: Analgesic activity. Conditions: in vivo.
In data set [2] the test system is central nervous system. The experiment in a line: Central nervous system activity per se, rats. The format is in vivo.
Data set [3] can be described thus: Hemostasis activity. The settings on record: in vivo.
The subject of data set [4] is red globules. As to the kind of experiment: Anti-sludge activity in vivo in the rat.
Data set [5] can be described thus: Hypolipidic, hypocholesterol, hypoglycemic activity. Conditions: in vivo.
The subject of data set [6] is central nervous system. The experiment in a line: Central nervous system activity per se, mice. Format: in vivo.
Data set [7] relates to effects of oxotremorine or reserpine. The experiment in a line: Modification of the effects of oxotremorine or reserpine. The format is in vivo. Conditions: alone or together with ethyl alcohol.
Data set [8] concerns dogs. The experiment in a line: Toxicity by intravenous administration in dogs. The format is in vivo. The method, then: Further tests were conducted by intravenous administration of the MS salt to the dogs. In these tests 15 dogs were divided into three groups of 2 male and 3 female dogs each. One group was used as a control; only the 5 ml of […] aqueous saline vehicle being injected intravenously. The other two groups of dogs received intravenous injections of the MS salt in the same vehicle; one group a 2.5% solution of the MS salt at a dosage of 7.5 mg/Kg and the other group receiving the same solution at a dosage of 15 mg/Kg.

`CS(=O)(=O)O.N#Cc1ccccc1CN1CCc2sccc2C1` [Methanesulfonate, 5-o-Cyanobenzyl-4,5,6,7-tetrahydrothieno [3,2-c] pyridine methanesulfonate]: in data set [1], the analgesic properties result is reported as “free of analgesic properties”. Besides, the “influence on the central nervous system per se, rats” value in data set [2] is “no influence on the central nervous system”. Further, the hemostasis activity result in data set [3] is “no hemostasis activity”. Moreover, in data set [4] (administered intravenously), the “anti-sludge activity in vivo, intravenous” value is listed as “also in vivo when administered orally or intravenously in the rat”. In addition, the “anti-sludge activity in vivo, oral” value in data set [4] (administered orally) is given as “also in vivo when administered orally”. In data set [5], the hypocholesterol activity entry was “no hypolipidic, hypocholesterol”; the hypoglycemic activity entry is recorded as “no hypolipidic, hypocholesterol, or hypoglycemic activity”; the hypolipidic activity result is “no hypolipidic”. For the same molecule, the “influence on the central nervous system per se, mice” value in data set [6] is “no influence on the central nervous system”. In addition, in data set [7], the “modification of the effects of oxotremorine” value is “does not modify the effects of oxotremorine” and the “modification of the effects of reserpine” value is given as “does not modify the effects of oxotremorine or reserpine”. Also, in data set [8] (conclusion from oral and intravenous tests), the “toxicity and tolerance in dogs (overall)” value was “of low toxicity and well-tolerated by dogs”. The death result in data set [8] (intravenous, 7.5 and 15 mg/Kg, 2.5% solution in 9% aqueous saline, 23 consecutive days) was “without the death of any dog”.
